Source: patent US20070219248A1, “Salt of Oxalic Acid with -[4[2-(N-Methyl-N-(2-Pyridyl)-Amino)Ethoxy]Benzyl]Thiazolidin-2,4- Dione and a Method of its Preparation and its Use” (priority 2004, published 2007)
“Also recorded” adds a separate entry of the source. Where a name gives a salt, the structure may show the parent alone.

Assays:
[1] = Solubility of rosiglitazone salts in 0.1 M hydrochloric acid (Example 7); format: physicochemical; details: 1 g salt
Excerpt: Contrary to some other salts of rosiglitazone, the above-described crystalline salt of formula III is well soluble in water and in aqueous solutions of hydrochloric acid. Especially the solubility in solutions of hydrochloric acid is very important considering the acidobasic conditions in the digestive system (especially in the stomach). It offers indication of the solubility of the substance after it is digested, which is a very important factor for evaluating pharmaceutical effectiveness of the substance. A comparison of the solubility of the salt of the compound of formula III in acidic environment with some of several other rosiglitazone salts is documented in Example 7. […] However, neither the same amount of rosiglitazone hydrochloride prepared according to WO 2000/063205 nor the same amount of pharmaceutically used rosiglitazone maleate of formula II prepared according to WO 94/05659 could be dissolved under the same conditions.
Solubility was determined for crystalline rosiglitazone oxalate of chemical formula III, which was prepared by the procedure according to Example 1. 1 g of crystalline salt of formula III was dissolved under stirring and at 25° C. in 20, 30, 35 a 40 ml of a 0.1M solution of hydrochloric acid. The mixture was stirred at 25° C. for five minutes. When using 20 and 30 ml of the solvent, there was obtained no solution.

[2] = Solubility in water and aqueous hydrochloric acid, stated only in words; format: physicochemical; details: crystalline form

Structure (SMILES) | Dissolution of 1 g of salt in 20 ml of solvent ([1]; 20 ml 0.1M hydrochloric acid, 25° C., stirred five minutes) | Dissolution of 1 g of salt in 30 ml of solvent ([1]; 30 ml 0.1M hydrochloric acid, 25° C., stirred five minutes) | Dissolution of 1 g of salt in 35 ml of solvent ([1]; 35 ml 0.1M hydrochloric acid, 25° C., stirred five minutes) | Dissolution of 1 g of salt in 40 ml of solvent ([1]; 40 ml 0.1M hydrochloric acid, 25° C., stirred five minutes) | Solubility in water and in aqueous solutions of hydrochloric acid [2] | Dissolution of the same amount (1 g) at the same conditions ([1]; 20 to 40 ml 0.1M hydrochloric acid, 25° C., stirred five minutes) | Dissolution after extension of the time and another dilution ([1]; extended dissolution time, further dilution with 0.1 M hydrochloric acid)
CN(CCOc1ccc(CC2SC(=O)NC2=O)cc1)c1ccccn1 (stereo not shown) [III] | no solution | no solution | cloudy solution | completely dissolved; also recorded: no cloudy solution | well soluble | – | –
CN(CCOc1ccc(CC2SC(=O)NC2=O)cc1)c1ccccn1 (stereo not shown) [rosiglitazone maleate, reference compound] | – | – | – | – | – | neither dissolving | No solutions could be obtained
